Test results reported in the supplement of paper PMC11451515.

How the values were obtained:
Conditions in all cases: 48 h
NOMO1 [1] = assay: AUC of viability dose-response curve (% viability x log10 dose units); higher = less sensitive
Procedure, shortened: (§1)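 Seeding of medium-adapted leukemia cells was at 500 or 1000 cells/well in 1536-well plates, followed by 48 h at 37°C with library compounds in DMSO at 11 threefold doses from 47 μM to 0.79 nM. CellTiter-Glo One luminescence was normalised per plate to DMSO and cell-free wells and fitted as a four-parameter log-logistic function of log10 dose. Area under the curve was integrated by trapezoidal rule, with curves exceeding full viability scaled and curves failing quality control removed.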

SEM cells [2] = assay: as above
Procedure, shortened: as §1

P12-Ichikawa [3] = assay: as above
Procedure, shortened: as §1

NOMO1 [4] = assay: cell viability relative to DMSO control; higher = less cytotoxic
Procedure, shortened: (§2)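 NOMO1 or SEM (500 cells/well) or P12-Ichikawa (1000 cells/well) leukemia cells were adapted for at least four passages in each medium. They were seeded in 1536-well plates (5 μl) and pin-dosed with library compounds in DMSO over an 11-point threefold series, 47 μM to 0.79 nM. CellTiter-Glo One luminescence was read after 48 h at 37°C. Viability is the per-plate percentage relative to DMSO wells, with cell-free wells as background.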

SEM cells [5] = assay: as above
Procedure, shortened: as §2

P12-Ichikawa [6] = assay: as above
Procedure, shortened: as §2

CC#CCn1c(N2CCC[C@@H](N)C2)nc2c1c(=O)n(Cc1nc(C)c3ccccc3n1)c(=O)n2C
AUC of viability dose-response curve
Conditions	NOMO1 [1]	P12-Ichikawa [3]	SEM cells [2]
HPLM + 10% dialyzed FBS	471	473	475
RPMI 5 mM glucose + 10% FBS	443	450	460
RPMI 5 mM glucose + 10% dialyzed FBS	457	449	433

cell viability [%]
Conditions	NOMO1 [4]	P12-Ichikawa [6]	SEM cells [5]
HPLM + 10% dialyzed FBS, 0.000781 µM	97.8	104	107
HPLM + 10% dialyzed FBS, 0.00234 µM	97.2	104	114
HPLM + 10% dialyzed FBS, 0.00702 µM	100	99.3	115
HPLM + 10% dialyzed FBS, 0.0211 µM	88.2	89.2	42.6
HPLM + 10% dialyzed FBS, 0.0632 µM	108	108	115
HPLM + 10% dialyzed FBS, 0.19 µM	110	109	104
HPLM + 10% dialyzed FBS, 0.569 µM	104	104	112
HPLM + 10% dialyzed FBS, 1.71 µM	87.8	97.8	109
HPLM + 10% dialyzed FBS, 5.12 µM	98.3	103	111
HPLM + 10% dialyzed FBS, 15.4 µM	114	99.7	116
HPLM + 10% dialyzed FBS, 46.1 µM	75.1	88.5	83.3
RPMI 5 mM glucose + 10% FBS, 0.000781 µM	97.6	94.9	105
RPMI 5 mM glucose + 10% FBS, 0.00234 µM	93.7	102	97.9
RPMI 5 mM glucose + 10% FBS, 0.00702 µM	101	102	105
RPMI 5 mM glucose + 10% FBS, 0.0211 µM	90.3	85.9	40.3
RPMI 5 mM glucose + 10% FBS, 0.0632 µM	89	96.8	114
RPMI 5 mM glucose + 10% FBS, 0.19 µM	96.3	94.6	102
RPMI 5 mM glucose + 10% FBS, 0.569 µM	102	96.1	112
RPMI 5 mM glucose + 10% FBS, 1.71 µM	89	93.9	108
RPMI 5 mM glucose + 10% FBS, 5.12 µM	88.1	91.2	109
RPMI 5 mM glucose + 10% FBS, 15.4 µM	91.1	87.4	102
RPMI 5 mM glucose + 10% FBS, 46.1 µM	82	94.9	88.7
RPMI 5 mM glucose + 10% dialyzed FBS, 0.000781 µM	104	104	96.8
RPMI 5 mM glucose + 10% dialyzed FBS, 0.00234 µM	96.6	102	94.4
RPMI 5 mM glucose + 10% dialyzed FBS, 0.00702 µM	112	98.4	88.7
RPMI 5 mM glucose + 10% dialyzed FBS, 0.0211 µM	87.7	83.6	45.6
RPMI 5 mM glucose + 10% dialyzed FBS, 0.0632 µM	101	100	108
RPMI 5 mM glucose + 10% dialyzed FBS, 0.19 µM	105	109	96
RPMI 5 mM glucose + 10% dialyzed FBS, 0.569 µM	100	101	108
RPMI 5 mM glucose + 10% dialyzed FBS, 1.71 µM	96.3	95.9	93.9
RPMI 5 mM glucose + 10% dialyzed FBS, 5.12 µM	93.8	97.6	93.5
RPMI 5 mM glucose + 10% dialyzed FBS, 15.4 µM	97.7	85.1	99.1
RPMI 5 mM glucose + 10% dialyzed FBS, 46.1 µM	91.7	85.9	75.2

CCCCN(CCCC)CC(O)c1cc(Cl)cc2c1-c1ccc(Cl)cc1/C2=C/c1ccc(Cl)cc1 (stereo unspecified)
AUC of viability dose-response curve
Conditions	NOMO1 [1]	P12-Ichikawa [3]	SEM cells [2]
HPLM + 10% dialyzed FBS	456	446	463
RPMI 5 mM glucose + 10% FBS	449	472	438
RPMI 5 mM glucose + 10% dialyzed FBS	461	448	434

cell viability [%]
Conditions	NOMO1 [4]	P12-Ichikawa [6]	SEM cells [5]
HPLM + 10% dialyzed FBS, 0.000781 µM	94.7	97.6	93.1
HPLM + 10% dialyzed FBS, 0.00234 µM	87.5	99.8	95.5
HPLM + 10% dialyzed FBS, 0.00702 µM	104	114	93.1
HPLM + 10% dialyzed FBS, 0.0211 µM	107	107	108
HPLM + 10% dialyzed FBS, 0.0632 µM	93.6	107	99
HPLM + 10% dialyzed FBS, 0.19 µM	107	111	107
HPLM + 10% dialyzed FBS, 0.569 µM	90.5	109	111
HPLM + 10% dialyzed FBS, 1.71 µM	97.9	117	105
HPLM + 10% dialyzed FBS, 5.12 µM	82.6	104	109
HPLM + 10% dialyzed FBS, 15.4 µM	95	121	104
HPLM + 10% dialyzed FBS, 46.1 µM	92.6	117	106
RPMI 5 mM glucose + 10% FBS, 0.000781 µM	83.3	98.6	80.9
RPMI 5 mM glucose + 10% FBS, 0.00234 µM	102	102	95.7
RPMI 5 mM glucose + 10% FBS, 0.00702 µM	94.6	107	85.6
RPMI 5 mM glucose + 10% FBS, 0.0211 µM	87.1	98	95.7
RPMI 5 mM glucose + 10% FBS, 0.0632 µM	105	102	95.1
RPMI 5 mM glucose + 10% FBS, 0.19 µM	86.9	117	98.4
RPMI 5 mM glucose + 10% FBS, 0.569 µM	87.5	104	94.6
RPMI 5 mM glucose + 10% FBS, 1.71 µM	90.7	113	89.9
RPMI 5 mM glucose + 10% FBS, 5.12 µM	104	97.5	98.6
RPMI 5 mM glucose + 10% FBS, 15.4 µM	94.9	109	91.2
RPMI 5 mM glucose + 10% FBS, 46.1 µM	97.8	82.5	78.9
RPMI 5 mM glucose + 10% dialyzed FBS, 0.000781 µM	104	83.9	88.9
RPMI 5 mM glucose + 10% dialyzed FBS, 0.00234 µM	91.8	99.7	94.4
RPMI 5 mM glucose + 10% dialyzed FBS, 0.00702 µM	93.7	101	89.3
RPMI 5 mM glucose + 10% dialyzed FBS, 0.0211 µM	104	107	89.6
RPMI 5 mM glucose + 10% dialyzed FBS, 0.0632 µM	99.4	96.9	78.9
RPMI 5 mM glucose + 10% dialyzed FBS, 0.19 µM	104	98.1	94.4
RPMI 5 mM glucose + 10% dialyzed FBS, 0.569 µM	102	97.5	94.5
RPMI 5 mM glucose + 10% dialyzed FBS, 1.71 µM	89.8	103	97.7
RPMI 5 mM glucose + 10% dialyzed FBS, 5.12 µM	95.4	104	101
RPMI 5 mM glucose + 10% dialyzed FBS, 15.4 µM	72.9	107	80.5
RPMI 5 mM glucose + 10% dialyzed FBS, 46.1 µM	103	107	91.3
